Laboratory results taken from patent US10508104B2, “6-hydroxy-5-(phenyl/heteroarylsulfonyl)pyrimidin-4(1H)-one as APJ agonists” (Bristol-Myers Squibb Company, priority 2016, dated 2019).
Where two headings read alike, the source gives them in different places.

Molecular target: human APJ receptor (Homo sapiens (Human), UniProt P35414)
Assay: Intracellular cAMP accumulation assay (APJ hcAMP, HTRF)
Format: cell-based
Details: read-out: Human APJ cAMP EC50 Potency range
Outline: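 HEK293 cells stably expressing human APJ, 5,000 per well, incubated 30 min at rt with compound, […] and 2 μM forskolin. cAMP measured by HTRF against a cAMP standard curve as inhibition of forskolin-driven production. EC50 from variable-slope sigmoidal fit.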

[1] = human APJ, intracellular cAMP accumulation
[2] = HEK293 cells stably expressing human APJ receptor, inhibition of forskolin-mediated cAMP production

human APJ receptor, sequence (P35414 whole entry): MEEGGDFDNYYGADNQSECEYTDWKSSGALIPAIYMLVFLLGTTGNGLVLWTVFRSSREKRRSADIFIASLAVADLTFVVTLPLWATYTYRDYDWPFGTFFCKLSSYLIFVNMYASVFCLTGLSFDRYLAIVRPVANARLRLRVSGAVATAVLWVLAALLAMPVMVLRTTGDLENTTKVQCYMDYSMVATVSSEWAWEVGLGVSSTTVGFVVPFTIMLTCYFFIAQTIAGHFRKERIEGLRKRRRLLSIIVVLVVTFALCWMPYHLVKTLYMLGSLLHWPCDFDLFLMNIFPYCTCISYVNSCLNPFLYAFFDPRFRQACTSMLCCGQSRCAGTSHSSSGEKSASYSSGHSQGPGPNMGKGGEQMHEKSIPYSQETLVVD

COC[C@@H](c1ccccc1)n1c(CC2CC2)nc(=O)c(S(=O)(=O)c2ccc(-c3cncc(F)c3)cc2)c1O [Example 181, 2-(cyclopropylmethyl)-5-[4-(5-fluoropyridin-3-yl)benzenesulfonyl]-6-hydroxy-1-[(1R)-2-methoxy-1-phenylethyl]-1,4-dihydropyrimidin-4-one]
EC50 [1]: 0.01 to 10 nM

COC[C@@H](c1ccccc1)n1c(CC2CC2)nc(=O)c(S(=O)(=O)c2ccc(-c3ccc(F)nc3)cc2)c1O [Example 182, 2-(cyclopropylmethyl)-5-[4-(6-fluoropyridin-3-yl)benzenesulfonyl]-6-hydroxy-1-[(1R)-2-methoxy-1-phenylethyl]-1,4-dihydropyrimidin-4-one]
EC50 [1]: 0.01 to 10 nM

COC[C@@H](c1ccccc1)n1c(CC2CC2)nc(=O)c(S(=O)(=O)c2ccc(-c3ccc(F)nc3C)cc2)c1O [Example 183, 2-(cyclopropylmethyl)-5-[4-(6-fluoro-2-methylpyridin-3-yl)benzenesulfonyl]-6-hydroxy-1-[(1R)-2-methoxy-1-phenylethyl]-1,4-dihydropyrimidin-4-one]
EC50 [1]: 0.01 to 10 nM

COC[C@@H](c1ccccc1)n1c(CCC(C)C)nc(=O)c(S(=O)(=O)c2ccc(Br)cc2)c1O [Example 184, (R)-5-((4-Bromophenyl)sulfonyl)-6-hydroxy-2-isopentyl-3-(2-methoxy-1-phenylethyl)pyrimidin-4(3H)-one]
EC50 [2]: 10 to 100 nM

CCCCc1nc(=O)c(S(=O)(=O)c2ccc(Br)cc2)c(O)n1[C@H](C)c1ccc(OC)cc1 [Example 185, 5-(4-bromobenzenesulfonyl)-2-butyl-6-hydroxy-1-[(1R)-1-(4-methoxyphenyl)ethyl]-1,4-dihydropyrimidin-4-one]
EC50 [1]: 100 to 300 nM

CCCCc1nc(O)c(S(=O)(=O)c2ccc(Br)cc2)c(=O)n1C(C)c1cccnc1 (centres unmarked) [Example 187, 5-(4-bromobenzenesulfonyl)-2-butyl-6-hydroxy-3-[1-(pyridin-3-yl)ethyl]-3,4-dihydropyrimidin-4-one]
EC50 [1]: 100 to 300 nM

COC[C@@H](c1ccccc1)n1c(CCC(C)C)nc(=O)c(S(=O)(=O)c2ccc(-c3ccnc(F)c3C)cc2)c1O [Example 189, (R)-5-((4-(2-Fluoro-3-methylpyridin-4-yl)phenyl)sulfonyl)-6-hydroxy-2-isopentyl-1-(2-methoxy-1-phenylethyl)pyrimidin-4(1H)-one]
EC50 [2]: 0.01 to 10 nM

COC[C@@H](c1ccccc1)n1c(CCC(C)C)nc(=O)c(S(=O)(=O)c2ccc(-c3cccnc3C)cc2)c1O [Example 190, 6-hydroxy-1-[(1R)-2-methoxy-1-phenylethyl]-2-(3-methylbutyl)-5-[4-(2-methylpyridin-3-yl)benzenesulfonyl]-1,4-dihydropyrimidin-4-one]
EC50 [1]: 0.01 to 10 nM

COC[C@@H](c1ccccc1)n1c(CCC(C)C)nc(=O)c(S(=O)(=O)c2ccc(-c3ccncc3C)cc2)c1O [Example 191, 6-hydroxy-1-[(1R)-2-methoxy-1-phenylethyl]-2-(3-methylbutyl)-5-[4-(3-methylpyridin-4-yl)benzenesulfonyl]-1,4-dihydropyrimidin-4-one]
EC50 [1]: 0.01 to 10 nM

CCCCc1nc(=O)c(S(=O)(=O)c2ccc(-c3ccncc3C)cc2)c(O)n1[C@@H](CC)c1cccc(Cl)c1 [Example 192, 2-butyl-1-[(1S)-1-(3-chlorophenyl)propyl]-6-hydroxy-5-[4-(3-methylpyridin-4-yl)benzenesulfonyl]-1,4-dihydropyrimidin-4-one]
EC50 [1]: 0.01 to 10 nM

CCCCc1nc(=O)c(S(=O)(=O)c2ccc(-c3cccnc3C)cc2)c(O)n1[C@@H](CC)c1cccc(Cl)c1 [Example 193, 2-butyl-1-[(1S)-1-(3-chlorophenyl)propyl]-6-hydroxy-5-[4-(2-methylpyridin-3-yl)benzenesulfonyl]-1,4-dihydropyrimidin-4-one]
EC50 [1]: 0.01 to 10 nM

CCCCc1nc(=O)c(S(=O)(=O)c2ccc(-c3ccnc(F)c3C)cc2)c(O)n1[C@@H](CC)c1cccc(Cl)c1 [Example 194, 2-butyl-1-[(1S)-1-(3-chlorophenyl)propyl]-5-[4-(2-fluoro-3-methylpyridin-4-yl)benzenesulfonyl]-6-hydroxy-1,4-dihydropyrimidin-4-one]
EC50 [1]: 0.01 to 10 nM

COC[C@@H](c1ccccc1)n1c(CCC(C)C)nc(=O)c(S(=O)(=O)c2ccc(-c3cncc(F)c3)cc2)c1O [Example 195, 5-[4-(5-fluoropyridin-3-yl)benzenesulfonyl]-6-hydroxy-1-[(1R)-2-methoxy-1-phenylethyl]-2-(3-methylbutyl)-1,4-dihydropyrimidin-4-one]
EC50 [1]: 0.01 to 10 nM

COC[C@@H](c1ccccc1)n1c(CCC(C)C)nc(=O)c(S(=O)(=O)c2ccc(-c3ccc(F)nc3C)cc2)c1O [Example 196, 5-[4-(6-fluoro-2-methylpyridin-3-yl)benzenesulfonyl]-6-hydroxy-1-[(1R)-2-methoxy-1-phenylethyl]-2-(3-methylbutyl)-1,4-dihydropyrimidin-4-one]
EC50 [1]: 0.01 to 10 nM

CCCCc1nc(=O)c(S(=O)(=O)c2ccc(-c3cncc(F)c3)cc2)c(O)n1[C@@H](CC)c1cccc(Cl)c1 [Example 197, 2-butyl-1-[(1S)-1-(3-chlorophenyl)propyl]-5-[4-(5-fluoropyridin-3-yl)benzenesulfonyl]-6-hydroxy-1,4-dihydropyrimidin-4-one]
EC50 [1]: 0.01 to 10 nM

CCCCc1nc(=O)c(S(=O)(=O)c2ccc(-c3ccc(F)nc3C)cc2)c(O)n1[C@@H](CC)c1cccc(Cl)c1 [Example 198, 2-butyl-1-[(1S)-1-(3-chlorophenyl)propyl]-5-[4-(6-fluoro-2-methylpyridin-3-yl)benzenesulfonyl]-6-hydroxy-1,4-dihydropyrimidin-4-one]
EC50 [1]: 0.01 to 10 nM

COC[C@@H](c1ccccc1)n1c(CCC(C)C)nc(=O)c(S(=O)(=O)c2ccc(-c3ccc(F)nc3)cc2)c1O [Example 199, 5-[4-(6-fluoropyridin-3-yl)benzenesulfonyl]-6-hydroxy-1-[(1R)-2-methoxy-1-phenylethyl]-2-(3-methylbutyl)-1,4-dihydropyrimidin-4-one]
EC50 [1]: 0.01 to 10 nM

CCCCc1nc(=O)c(S(=O)(=O)c2ccc(-c3ccc(F)nc3)cc2)c(O)n1[C@@H](CC)c1cccc(Cl)c1 [Example 200, 2-butyl-1-[(1S)-1-(3-chlorophenyl)propyl]-5-[4-(6-fluoropyridin-3-yl)benzenesulfonyl]-6-hydroxy-1,4-dihydropyrimidin-4-one]
EC50 [1]: 0.01 to 10 nM

CCCCc1nc(=O)c(S(=O)(=O)c2ccc(-c3ccncc3C)cc2)c(O)n1C(c1ccccc1)C1CC1 (centres unmarked) [Example 201]
EC50 [1]: 0.01 to 10 nM

CCCCc1nc(=O)c(S(=O)(=O)c2ccc(-c3ccc(F)nc3C)cc2)c(O)n1C(c1ccccc1)C1CC1 (centres unmarked) [Example 202, 2-butyl-1-[cyclopropyl(phenyl)methyl]-5-[4-(6-fluoro-2-methylpyridin-3-yl)benzenesulfonyl]-6-hydroxy-1,4-dihydropyrimidin-4-one]
EC50 [1]: 0.01 to 10 nM

CCCCc1nc(=O)c(S(=O)(=O)c2ccc(-c3ccnc(F)c3C)cc2)c(O)n1C(C)c1cccnc1 (centres unmarked) [Example 203, 2-butyl-5-[4-(2-fluoro-3-methylpyridin-4-yl)benzenesulfonyl]-6-hydroxy-1-[1-(pyridin-3-yl)ethyl]-1,4-dihydropyrimidin-4-one]
EC50 [1]: 0.01 to 10 nM

CCCCc1nc(=O)c(S(=O)(=O)c2ccc(-c3ccnc(F)c3C)cc2)c(O)n1C(c1ccccc1)C1CC1 (centres unmarked) [Example 204, 2-butyl-1-[cyclopropyl(phenyl)methyl]-5-[4-(2-fluoro-3-methylpyridin-4-yl)benzenesulfonyl]-6-hydroxy-1,4-dihydropyrimidin-4-one]
EC50 [1]: 0.01 to 10 nM

CCCCc1nc(=O)c(S(=O)(=O)c2ccc(-c3ccncc3C)cc2)c(O)n1C(C)c1cccnc1 (centres unmarked) [Example 205, 2-butyl-6-hydroxy-5-[4-(3-methylpyridin-4-yl)benzenesulfonyl]-1-[1-(pyridin-3-yl)ethyl]-1,4-dihydropyrimidin-4-one]
EC50 [1]: 0.01 to 10 nM

CCCCc1nc(=O)c(S(=O)(=O)c2ccc(-c3cccnc3C)cc2)c(O)n1C(c1ccccc1)C1CC1 (centres unmarked) [Example 206, 2-butyl-1-[cyclopropyl(phenyl)methyl]-6-hydroxy-5-[4-(2-methylpyridin-3-yl)benzenesulfonyl]-1,4-dihydropyrimidin-4-one]
EC50 [1]: 0.01 to 10 nM

CC[C@@H](c1ccccc1)n1c(CCC(C)C)nc(=O)c(S(=O)(=O)c2ccc(-c3ccnc(F)c3C)cc2)c1O [Example 207, 5-[4-(2-fluoro-3-methylpyridin-4-yl)benzenesulfonyl]-6-hydroxy-2-(3-methylbutyl)-1-[(1S)-1-phenylpropyl]-1,4-dihydropyrimidin-4-one]
EC50 [1]: 0.01 to 10 nM

CC[C@@H](c1ccccc1)n1c(CCC(C)C)nc(=O)c(S(=O)(=O)c2ccc(-c3ccc(F)nc3C)cc2)c1O [Example 208, 5-[4-(6-fluoro-2-methylpyridin-3-yl)benzenesulfonyl]-6-hydroxy-2-(3-methylbutyl)-1-[(1S)-1-phenylpropyl]-1,4-dihydropyrimidin-4-one]
EC50 [1]: 0.01 to 10 nM

CC[C@@H](c1ccccc1)n1c(CCC(C)C)nc(=O)c(S(=O)(=O)c2ccc(-c3ccncc3C)cc2)c1O [Example 209, 6-hydroxy-2-(3-methylbutyl)-5-[4-(3-methylpyridin-4-yl)benzenesulfonyl]-1-[(1S)-1-phenylpropyl]-1,4-dihydropyrimidin-4-one]
EC50 [1]: 0.01 to 10 nM

CCCCc1nc(=O)c(S(=O)(=O)c2ccc(-c3ccncc3C)cc2)c(O)n1[C@H](C)c1ccc(OC)cc1 [Example 210, 2-butyl-6-hydroxy-1-[(1R)-1-(4-methoxyphenyl)ethyl]-5-[4-(3-methylpyridin-4-yl)benzenesulfonyl]-1,4-dihydropyrimidin-4-one]
EC50 [1]: 0.01 to 10 nM

CCCCc1nc(=O)c(S(=O)(=O)c2ccc(-c3ccnc(F)c3C)cc2)c(O)n1[C@@H](CC)c1ccc2c(c1)OCO2 [Example 211, 1-[(1S)-1-(2H-1,3-benzodioxol-5-yl)propyl]-2-butyl-5-[4-(2-fluoro-3-methylpyridin-4-yl)benzenesulfonyl]-6-hydroxy-1,4-dihydropyrimidin-4-one]
EC50 [1]: 0.01 to 10 nM
